Results as given in article PMC10600239, “Selective MCL-1 inhibitor ABBV-467 is efficacious in tumor models but is associated with cardiac troponin increases in patients” (Communications Medicine, 2023).
pIC50, pKi: −log10 of the molar value.

Tests used:
Assay in all cases: Off-target profiling (Supplementary Data 1)
[1] = biological target: off-target receptors, ion channels, and transporters (Homo sapiens, UniProt P46734); conditions: TR-FRET Kinome; Invitrogen A-1224615.7 .2(Subs Conc)
[2] = biological target: off-target receptors, ion channels, and transporters (Homo sapiens, UniProt P35372)
Sequence of off-target receptors, ion channels, and transporters (Homo sapiens, UniProt P35372) (P35372 whole entry): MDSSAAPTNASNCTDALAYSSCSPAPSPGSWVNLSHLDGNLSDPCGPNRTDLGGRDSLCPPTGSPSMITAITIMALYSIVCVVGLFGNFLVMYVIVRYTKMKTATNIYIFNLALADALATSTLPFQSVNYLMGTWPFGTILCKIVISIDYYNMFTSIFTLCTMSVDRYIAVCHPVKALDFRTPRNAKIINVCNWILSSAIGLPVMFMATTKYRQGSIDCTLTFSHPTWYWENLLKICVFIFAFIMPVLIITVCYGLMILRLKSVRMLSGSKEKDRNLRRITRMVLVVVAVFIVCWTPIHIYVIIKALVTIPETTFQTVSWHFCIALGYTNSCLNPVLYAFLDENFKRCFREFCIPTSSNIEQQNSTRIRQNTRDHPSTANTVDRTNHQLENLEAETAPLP

[3] = biological target: off-target receptors, ion channels, and transporters (Homo sapiens, UniProt P51812); conditions: TR-FRET Kinome; Invitrogen A-1169612.6 .0015(Subs Conc)
[4] = biological target: off-target receptors, ion channels, and transporters (Homo sapiens, UniProt Q8IU85); conditions: TR-FRET Kinome; Invitrogen A-1167389.7 .025(Subs Conc)
[5] = biological target: off-target receptors, ion channels, and transporters (Homo sapiens, UniProt P45983); conditions: TR-FRET Kinome; Invitrogen A-1196442.2 .1(Subs Conc)
Sequence of off-target receptors, ion channels, and transporters (Homo sapiens, UniProt P45983) (P45983 whole entry): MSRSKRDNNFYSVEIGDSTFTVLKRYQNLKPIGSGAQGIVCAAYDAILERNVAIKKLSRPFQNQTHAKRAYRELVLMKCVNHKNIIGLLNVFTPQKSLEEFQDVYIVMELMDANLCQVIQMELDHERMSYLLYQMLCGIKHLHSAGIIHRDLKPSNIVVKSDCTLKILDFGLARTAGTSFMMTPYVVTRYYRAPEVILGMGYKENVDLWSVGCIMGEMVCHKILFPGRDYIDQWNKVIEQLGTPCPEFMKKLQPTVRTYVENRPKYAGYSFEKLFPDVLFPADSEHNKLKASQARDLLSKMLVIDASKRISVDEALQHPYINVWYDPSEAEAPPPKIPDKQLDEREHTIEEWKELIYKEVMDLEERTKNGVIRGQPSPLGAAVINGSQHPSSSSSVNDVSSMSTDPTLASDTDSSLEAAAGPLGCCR

[6] = biological target: off-target receptors, ion channels, and transporters (Homo sapiens, UniProt O60674); conditions: TR-FRET Kinome; Invitrogen A-1167389.7 .006(Subs Conc)
[7] = biological target: off-target receptors, ion channels, and transporters (Homo sapiens, UniProt P57059); conditions: TR-FRET Kinome; Invitrogen A-1167389.7 .005(Subs Conc)
Sequence of off-target receptors, ion channels, and transporters (Homo sapiens, UniProt P57059) (P57059 whole entry): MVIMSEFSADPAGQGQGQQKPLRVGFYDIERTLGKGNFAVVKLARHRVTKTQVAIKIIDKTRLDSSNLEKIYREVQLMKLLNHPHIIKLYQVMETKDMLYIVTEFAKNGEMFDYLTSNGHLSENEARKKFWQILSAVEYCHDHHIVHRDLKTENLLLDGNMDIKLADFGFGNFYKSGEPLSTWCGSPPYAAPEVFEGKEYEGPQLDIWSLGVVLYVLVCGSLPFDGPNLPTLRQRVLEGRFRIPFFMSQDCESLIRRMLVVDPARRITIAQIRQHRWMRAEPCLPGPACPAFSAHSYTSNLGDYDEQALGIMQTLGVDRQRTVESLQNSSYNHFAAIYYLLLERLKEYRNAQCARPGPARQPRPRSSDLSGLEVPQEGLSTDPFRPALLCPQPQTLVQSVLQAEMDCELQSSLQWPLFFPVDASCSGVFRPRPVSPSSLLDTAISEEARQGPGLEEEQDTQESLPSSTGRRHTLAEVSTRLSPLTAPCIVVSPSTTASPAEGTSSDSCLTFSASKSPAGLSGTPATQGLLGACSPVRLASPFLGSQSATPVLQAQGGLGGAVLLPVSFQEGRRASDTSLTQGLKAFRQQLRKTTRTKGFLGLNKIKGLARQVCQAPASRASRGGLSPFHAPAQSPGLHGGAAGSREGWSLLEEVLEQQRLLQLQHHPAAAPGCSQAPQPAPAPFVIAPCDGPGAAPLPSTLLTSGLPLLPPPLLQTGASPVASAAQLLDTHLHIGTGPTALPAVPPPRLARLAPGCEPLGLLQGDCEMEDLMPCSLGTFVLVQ

[8] = biological target: off-target receptors, ion channels, and transporters (Homo sapiens, UniProt P30411)
Sequence of off-target receptors, ion channels, and transporters (Homo sapiens, UniProt P30411) (P30411 whole entry): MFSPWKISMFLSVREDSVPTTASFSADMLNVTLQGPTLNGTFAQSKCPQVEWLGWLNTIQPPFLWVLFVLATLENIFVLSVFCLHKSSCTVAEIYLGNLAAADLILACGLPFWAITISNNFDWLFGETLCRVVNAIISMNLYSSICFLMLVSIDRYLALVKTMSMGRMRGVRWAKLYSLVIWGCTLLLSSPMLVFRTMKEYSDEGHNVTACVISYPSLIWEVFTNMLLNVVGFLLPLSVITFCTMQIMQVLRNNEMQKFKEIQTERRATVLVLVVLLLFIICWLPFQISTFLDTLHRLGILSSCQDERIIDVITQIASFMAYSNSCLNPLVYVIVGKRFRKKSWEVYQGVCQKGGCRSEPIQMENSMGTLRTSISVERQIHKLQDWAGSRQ

[9] = biological target: off-target receptors, ion channels, and transporters (Homo sapiens, UniProt P23219); conditions: CEREP
[10] = biological target: off-target receptors, ion channels, and transporters (Homo sapiens, UniProt P43405); conditions: TR-FRET Kinome; Invitrogen A-1167389.7 .001(Subs Conc)
[11] = biological target: off-target receptors, ion channels, and transporters (Homo sapiens, UniProt O14965); conditions: TR-FRET Kinome; Invitrogen A-1169612.6 .006(Subs Conc)
[12] = biological target: off-target receptors, ion channels, and transporters (Homo sapiens, UniProt Q08881); conditions: TR-FRET Kinome; Invitrogen A-1224615.7 .025(Subs Conc)
[13] = biological target: off-target receptors, ion channels, and transporters (Homo sapiens, UniProt O15530); conditions: TR-FRET Kinome; Invitrogen A-1167389.7 .015(Subs Conc)
[14] = biological target: off-target receptors, ion channels, and transporters (Homo sapiens, UniProt P07333); conditions: TR-FRET Kinome; Invitrogen A-1167389.7 .004(Subs Conc)
[15] = biological target: off-target receptors, ion channels, and transporters (Homo sapiens, UniProt P51955); conditions: TR-FRET Kinome; Invitrogen A-1196581.2 .025(Subs Conc)
[16] = biological target: off-target receptors, ion channels, and transporters (Homo sapiens, UniProt P49336); conditions: TR-FRET Kinome; Invitrogen A-1167389.7 .025(Subs Conc)
[17] = biological target: off-target receptors, ion channels, and transporters (Homo sapiens, UniProt P08172)
Sequence of off-target receptors, ion channels, and transporters (Homo sapiens, UniProt P08172) (P08172 whole entry): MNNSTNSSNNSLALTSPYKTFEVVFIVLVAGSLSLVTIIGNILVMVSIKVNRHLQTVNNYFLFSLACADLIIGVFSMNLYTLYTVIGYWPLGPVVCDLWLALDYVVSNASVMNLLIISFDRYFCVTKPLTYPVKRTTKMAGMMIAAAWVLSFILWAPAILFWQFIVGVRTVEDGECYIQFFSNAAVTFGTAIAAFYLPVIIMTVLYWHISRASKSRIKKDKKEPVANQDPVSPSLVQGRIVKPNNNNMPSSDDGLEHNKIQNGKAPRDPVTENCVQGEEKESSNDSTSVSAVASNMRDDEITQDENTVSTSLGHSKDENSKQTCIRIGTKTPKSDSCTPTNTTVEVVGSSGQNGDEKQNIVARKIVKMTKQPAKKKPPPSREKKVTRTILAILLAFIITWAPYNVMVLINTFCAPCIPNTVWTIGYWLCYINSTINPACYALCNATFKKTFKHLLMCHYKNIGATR

[18] = biological target: off-target receptors, ion channels, and transporters (Homo sapiens, UniProt Q96GD4); conditions: TR-FRET Kinome; Invitrogen A-1202211.2 .05(Subs Conc)
[19] = biological target: off-target receptors, ion channels, and transporters (Homo sapiens, UniProt P49760); conditions: TR-FRET Kinome; Invitrogen A-1180691.2 .05(Subs Conc)
[20] = biological target: off-target receptors, ion channels, and transporters (Homo sapiens, UniProt Q16288); conditions: TR-FRET Kinome; Invitrogen A-1202211.2 .025(Subs Conc)
Sequence of off-target receptors, ion channels, and transporters (Homo sapiens, UniProt Q16288) (Q16288 32-839): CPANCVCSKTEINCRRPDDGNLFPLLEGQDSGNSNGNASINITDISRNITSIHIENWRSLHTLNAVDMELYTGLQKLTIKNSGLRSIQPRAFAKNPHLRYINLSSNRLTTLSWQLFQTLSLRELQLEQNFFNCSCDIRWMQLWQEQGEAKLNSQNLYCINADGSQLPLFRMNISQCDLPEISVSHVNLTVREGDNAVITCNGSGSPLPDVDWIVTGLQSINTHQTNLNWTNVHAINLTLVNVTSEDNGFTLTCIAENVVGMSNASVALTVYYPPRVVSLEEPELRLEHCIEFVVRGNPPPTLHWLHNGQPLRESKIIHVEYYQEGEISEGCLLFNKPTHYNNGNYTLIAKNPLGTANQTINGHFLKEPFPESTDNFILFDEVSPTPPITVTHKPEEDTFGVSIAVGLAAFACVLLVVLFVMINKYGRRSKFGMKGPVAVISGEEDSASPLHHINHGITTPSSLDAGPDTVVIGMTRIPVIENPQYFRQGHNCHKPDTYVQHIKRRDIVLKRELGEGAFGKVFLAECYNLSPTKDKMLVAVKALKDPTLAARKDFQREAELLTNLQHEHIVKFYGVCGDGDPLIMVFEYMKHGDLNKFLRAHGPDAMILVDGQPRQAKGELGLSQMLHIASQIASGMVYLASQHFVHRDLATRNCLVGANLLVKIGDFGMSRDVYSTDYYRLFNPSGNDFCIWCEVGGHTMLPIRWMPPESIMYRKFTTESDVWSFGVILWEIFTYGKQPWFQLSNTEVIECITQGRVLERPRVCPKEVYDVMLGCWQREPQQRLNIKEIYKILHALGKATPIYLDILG

[21] = biological target: off-target receptors, ion channels, and transporters (Homo sapiens, UniProt P41595)
Sequence of off-target receptors, ion channels, and transporters (Homo sapiens, UniProt P41595) (P41595 whole entry): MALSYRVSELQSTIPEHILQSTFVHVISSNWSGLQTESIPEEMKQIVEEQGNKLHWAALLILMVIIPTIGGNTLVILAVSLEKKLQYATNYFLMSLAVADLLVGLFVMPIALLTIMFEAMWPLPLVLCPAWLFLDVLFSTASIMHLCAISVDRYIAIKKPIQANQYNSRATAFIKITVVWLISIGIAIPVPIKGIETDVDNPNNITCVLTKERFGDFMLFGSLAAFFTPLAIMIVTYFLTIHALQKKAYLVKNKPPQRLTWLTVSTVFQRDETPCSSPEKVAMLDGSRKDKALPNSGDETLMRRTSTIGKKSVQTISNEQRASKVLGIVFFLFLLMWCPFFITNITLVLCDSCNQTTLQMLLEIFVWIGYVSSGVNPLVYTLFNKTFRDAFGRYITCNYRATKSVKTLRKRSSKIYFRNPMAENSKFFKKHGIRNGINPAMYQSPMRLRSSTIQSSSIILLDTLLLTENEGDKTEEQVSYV

[22] = biological target: off-target receptors, ion channels, and transporters (Homo sapiens, UniProt P00533); conditions: TR-FRET Kinome; Invitrogen A-1224127.6 .1(Subs Conc)
[23] = biological target: off-target receptors, ion channels, and transporters (Homo sapiens, UniProt P05771); conditions: TR-FRET Kinome, SignalChem A-1167389.7 .05(Subs Conc)
Sequence of off-target receptors, ion channels, and transporters (Homo sapiens, UniProt P05771) (P05771 2-671): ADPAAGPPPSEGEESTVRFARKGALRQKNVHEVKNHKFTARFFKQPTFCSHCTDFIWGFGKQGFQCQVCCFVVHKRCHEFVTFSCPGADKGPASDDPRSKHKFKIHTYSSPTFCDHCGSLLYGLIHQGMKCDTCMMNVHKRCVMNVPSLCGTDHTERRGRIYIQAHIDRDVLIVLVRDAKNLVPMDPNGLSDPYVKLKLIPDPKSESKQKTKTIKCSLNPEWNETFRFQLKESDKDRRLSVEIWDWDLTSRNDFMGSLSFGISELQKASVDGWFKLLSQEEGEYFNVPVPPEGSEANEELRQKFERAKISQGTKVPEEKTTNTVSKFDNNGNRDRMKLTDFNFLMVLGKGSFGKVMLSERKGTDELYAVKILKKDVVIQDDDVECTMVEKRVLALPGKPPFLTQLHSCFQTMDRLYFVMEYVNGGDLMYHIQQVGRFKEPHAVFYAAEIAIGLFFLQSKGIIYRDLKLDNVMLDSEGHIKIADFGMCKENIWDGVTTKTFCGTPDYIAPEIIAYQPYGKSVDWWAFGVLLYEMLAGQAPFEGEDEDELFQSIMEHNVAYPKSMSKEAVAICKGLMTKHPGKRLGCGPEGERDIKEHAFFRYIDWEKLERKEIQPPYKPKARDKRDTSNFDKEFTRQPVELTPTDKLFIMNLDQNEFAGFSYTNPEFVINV

[24] = biological target: off-target receptors, ion channels, and transporters (Homo sapiens, UniProt Q9BYT3); conditions: TR-FRET Kinome; Invitrogen A-1167389.7 .05(Subs Conc)
Sequence of off-target receptors, ion channels, and transporters (Homo sapiens, UniProt Q9BYT3) (Q9BYT3 whole entry): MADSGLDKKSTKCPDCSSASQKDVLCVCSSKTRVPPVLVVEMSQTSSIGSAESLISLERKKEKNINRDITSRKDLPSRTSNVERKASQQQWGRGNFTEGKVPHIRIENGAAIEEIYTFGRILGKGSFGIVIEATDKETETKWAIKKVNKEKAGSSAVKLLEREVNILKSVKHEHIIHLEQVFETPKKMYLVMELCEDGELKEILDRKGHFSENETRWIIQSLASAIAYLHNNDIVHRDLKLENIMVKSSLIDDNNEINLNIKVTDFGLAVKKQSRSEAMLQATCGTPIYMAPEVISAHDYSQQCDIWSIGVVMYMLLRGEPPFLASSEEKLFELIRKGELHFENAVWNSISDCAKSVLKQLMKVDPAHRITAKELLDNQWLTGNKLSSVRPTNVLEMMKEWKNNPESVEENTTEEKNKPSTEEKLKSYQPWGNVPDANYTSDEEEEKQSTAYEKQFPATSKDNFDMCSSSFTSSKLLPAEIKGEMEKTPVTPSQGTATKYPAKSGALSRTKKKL

Cc1c(Cl)c2c(Cl)c(C)c1-c1c(-c3ccc(F)cc3)sc3ncnc(c13)O[C@@H](C(=O)O)Cc1cc(ccc1OCc1ccnc(-c3ccc(OC[C@H]4COCCO4)cc3)n1)OC[C@@H](CN1CCN(C)CC1)O2 [ABBV-467]
MAP2K3 - IC50 [1]: > 10 µM | Opioid mu CHO Human - EC50 ([2]; Bioprofiling 6pt Ag): > 10 µM | Opioid mu CHO Human - IC50 ([2]; Bioprofiling 6pt Antag, DAMGO): > 10 µM | Rsk2 - IC50 [3]: > 10 µM | CAMK1D - IC50 [4]: > 10 µM | JNK1 - IC50 [5]: > 10 µM | JAK2 - IC50 [6]: > 10 µM | SIK1 - IC50 [7]: > 10 µM | B2 CHO Human - EC50 ([8]; Bioprofiling 6pt Ag): > 10 µM | B2 CHO Human - IC50 ([8]; Bioprofiling 6pt Antag, Bradykinin): >10.00 µM | COX1 Human (Enzymatic Assay) - IC50 [9]: 8.6 µM | Syk - IC50 [10]: > 10 µM | Aurora2 - IC50 [11]: > 10 µM | ITK - IC50 [12]: > 10 µM | PDK1 - IC50 [13]: > 10 µM | CSF1R - IC50 [14]: > 10 µM | Nek2 - IC50 [15]: > 10 µM | CDK8/Cyclin C - IC50 [16]: > 10 µM | M2 CHO Human - EC50 ([17]; Bioprofiling 6pt Ag): > 10 µM | M2 CHO Human - IC50 ([17]; Bioprofiling 6pt Antag, Carbachol): > 10 µM | Aurora1 - IC50 [18]: > 10 µM | CLK2 - IC50 [19]: > 10 µM | TrkC - IC50 [20]: > 10 µM | TrkC - Ki [20]: >4.65 µM | 5-HT2B CHO Human - EC50 ([21]; Bioprofiling 6pt Ag): > 10 µM | 5-HT2B CHO Human - IC50 ([21]; Bioprofiling 6pt Antag, Serotonin (5-HT)): > 10 µM | 5-HT2B Human (Functional - Agonist Effect) - EC50 ([21]; CEREP): > 100 µM | 5-HT2B Human (Functional - Antagonist Effect) - IC50 ([21]; CEREP): >100.00 µM | 5-HT2B Human (Functional - Antagonist Effect) - Kb ([21]; CEREP): >15.30 µM | EGFR - IC50 [22]: > 10 µM | pIC50 ([23]; read-out: PKCbeta2 - IC50): < 5.00 | pKi ([23]; read-out: PKCbeta2 - Ki): < 5.41 | STK33 - IC50 [24]: > 10 µM
